The text below walks through data of patent US6750375B2, “Transgenic mouse comprising a disruption in an RGS9 gene” (California Institute of Technology, priority 2000, dated 2004).

What all share (assay type): in vivo, mouse
In data set [1] the test system is RGS9 knockout mice and their wild type littermates. Description: Locomotor activity (photobeam cage rack) in unlesioned animals. The protocol: (§1) RGS9 knockout mice and their wild type littermates were placed in the photobeam cage rack activity system. The photobeam cage rack activity system was made by San Diego Instruments. Single events represent disruption of two distinct light beams 10 cm apart. Before drug administration, animals were allowed to habituate for 30 min. which was scored as baseline activity. […] All drugs were injected intraperitoneally. Drug effects were assessed for 30 min. Bodyweight was measured prior to all drug applications.
Locomotion in Unlesioned Animals

The test system is the same in data set [2]. The experiment in a line: Locomotion in dopamine depleted (reserpine treated) animals. As to the method: as §1
There are several options to induce behavioral changes secondary to a dopaminergic deficit in rodents. However, a strong phenotype in mice is difficult o achieve. […] Therefore, we depleted the animals of dopamine using chronic treatment with reserpine (1 mg /kg per day×5 days). […] Baseline locomotor activity was already greater in homozygous knock-out animals (FIG. 2, n. s.).

Data set [3] shares this test system. Description: Dyskinesia rating (abnormal involuntary movements) in reserpine treated animals. Conditions: apomorphine 5 mg/kg after chronic reserpine. An excerpt:
To score for abnormal involuntary movements we adapted a rating scale that was previously used to score drug induced dyskinesia in monkeys (Goulet and Madra, JPET 2000). Both, trunk and limb, dyskinesia and stereotypic behavior were rated-absent (=O), mild (=1), moderate (=or 2) or severe (=3).
Using a modified monkey dyskinesia scale, there was a dramatic difference between homozygous knock out animals and wild type or heterozygous mice (FIG. 3).

Consider `Oc1cc2c(cc1O)C(c1ccccc1)CNCC2` (stereo not shown) [SKF 38393], for which the increase in locomotion in data set [1] (SKF 38393 10 mg/kg, all animals, no differences between genotypes (p=0.7)) came to 2 fold.

With `C[C@H](N)Cc1ccccc1` [amphetamine, d-amphetamine], the “increase in locomotion, homozygous knock-out vs wild type” value in data set [1] (amphetamine 5 mg/kg intraperitoneal, homozygous knock-out animals, p<0.05, t-test) is recorded as “significantly greater increase in locomotion”. In addition, the locomotion result in data set [1] (amphetamine 5 mg/kg intraperitoneal, wild type and RGS9 deficient animals) is listed as “robust increase in locomotion”.

`CN1CCc2cccc3c2[C@H]1Cc1ccc(O)c(O)c1-3` [apomorphine]: in data set [2] (apomorphine 5 mg/kg after chronic reserpine, all animals), the locomotor activity entry is listed as “induced locomotor activity in all animals”. The “locomotor activity, homozygous knock-out vs other animals” value in data set [2] (apomorphine 5 mg/kg after chronic reserpine, homozygous knock out animals, p<0.05) is on record as “more pronounced in homozygous knock out animals”. For the same compound, in data set [3], the “abnormal motor behavior (dystonia, hyperkinetic movements of the hindlimbs)” value is “induced abnormal motor behavior only in homozygous knockout animals”.

On to `COC(=O)[C@H]1[C@H]2C[C@@H]3c4[nH]c5cc(OC)ccc5c4CCN3C[C@H]2C[C@@H](OC(=O)c2cc(OC)c(OC)c(OC)c2)[C@@H]1OC` [reserpine], for which, in data set [2] (reserpine 1 mg/kg per day x 5 days), the spontaneous locomotion result is on record as “greatly reduced spontaneous locomotion”.
